Data set [1] deals with T1, ABCC1/MRP1 (Homo sapiens, UniProt P33527).
Data set [2] concerns the target T2, ABCG2/BCRP (Homo sapiens, UniProt Q9UNQ0).
T2 sequence (Q9UNQ0 1-655): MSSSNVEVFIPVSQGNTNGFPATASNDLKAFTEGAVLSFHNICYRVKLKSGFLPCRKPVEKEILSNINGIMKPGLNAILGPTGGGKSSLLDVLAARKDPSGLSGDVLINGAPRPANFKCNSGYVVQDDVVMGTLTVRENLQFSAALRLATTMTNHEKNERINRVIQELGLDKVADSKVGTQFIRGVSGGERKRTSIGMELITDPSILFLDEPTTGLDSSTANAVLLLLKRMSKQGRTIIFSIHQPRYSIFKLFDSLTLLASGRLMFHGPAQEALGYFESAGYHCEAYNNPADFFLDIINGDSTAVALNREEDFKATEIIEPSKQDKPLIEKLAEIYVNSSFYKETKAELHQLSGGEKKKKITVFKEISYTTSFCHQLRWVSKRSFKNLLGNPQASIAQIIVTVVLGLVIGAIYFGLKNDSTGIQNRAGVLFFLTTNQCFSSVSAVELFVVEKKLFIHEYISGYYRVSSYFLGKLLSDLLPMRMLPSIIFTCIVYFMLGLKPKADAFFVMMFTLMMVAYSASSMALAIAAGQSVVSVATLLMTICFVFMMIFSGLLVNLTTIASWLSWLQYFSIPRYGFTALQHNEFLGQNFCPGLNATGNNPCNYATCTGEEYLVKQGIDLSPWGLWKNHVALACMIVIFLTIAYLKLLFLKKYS
The data set is described as follows: in vitro. Conditions: human. Here is the method:
(§1) For the ABC transporter assays, we used both cell-based and membrane-based functional assays. […] The respective transport activities were assayed by measuring the cellular fluorescence of the respective transported substrates Phengreen (ABCG2) and Calcein (ABCB1 and ABCC1).
(§2) The cells were kept on ice until the flow cytometry measurements. All experiments were performed in triplicate and in at least three biological parallels. […] The PhenGreen (PG) or Calcein signal was detected in the BL1 channel (emission filter: 530/30 nm). Analysis of the data was carried out by the Attune Nxt Cytometer Software v3.1.2 (Thermo Fischer Scientific, Waltham, MA, USA). The inhibition of transporter activity was calculated by comparing the fluorescence in the presence of the test compound to that in the presence of a specific inhibitor providing maximum inhibition. […] Half-maximum inhibition (IC50) values were calculated by using the Origin2019 software (9.6.5.169, OriginLab Corporation, Northampton, MA, USA). […] In these experiments, we measured Hoechst dye extrusion in HeLa cells stably expressing eGFP and the ABCG2 variants driven by the same promoter—the transgenic cells generated by the Sleeping Beauty transposon system. […] For details, see Zámbó et al.). […] The maximum inhibition was defined for each variant as the fluorescence difference of the samples incubated with and without Ko143, respectively. […] Data analysis was performed using the Attune Nxt Cytometer Software v3.1.2. Two samples per condition and three biological replicates were examined in each experiment.
Here, we used both PhenGreen-SK diacetate and Hst dye for these measurements. The PhenGreen (PG) assay is a recently patented method applied for ensuring an efficient ABCG2 transport measurement, as the non-fluorescent PhenGreen diacetate (PG-DA) is actively extruded by ABCG2 and the cellular fluorescence is correlated with ABCG2 transport activity. Therefore, we applied this assay to characterize the test drug interactions in intact PLB-985 cells expressing high levels of the ABCG2 protein. […] ABCG2 inhibition by the test compounds was estimated by their relative (%) inhibition compared to full inhibition by Ko143.

For data set [3], the target named is T2, ABCG2/BCRP. As to the kind of experiment: in vitro. Conditions: human. Here is the method:
These were employed at 37 °C for 10 min (ABCG2), 1 min (ABCB1), or 3 min (ABCC1), with or without 4 mM Mg-ATP, in a 50 μL final volume. The known reference inhibitors of the transporters (1 µM Ko143 for ABCG2, 1 µM Valspodar for ABCB1, and 200 µM Benzbromarone for ABCC1) served as controls. Each test compound was dissolved in DMSO and a 1 µL volume was added to the samples. After incubation, the samples were filtered and washed, and the substrates in the vesicles were dissolved in 10% SDS and transferred onto another plate. After the addition of a stabilizer, the fluorescence was measured in plate readers (Victor X3 and Enspire Perkin-Elmer, Waltham, MA, USA), while the activity of the radiolabeled substrate was measured by liquid scintillation counting (Perkin Elmer MicroBeta2 liquid scintillation counter, Perkin Elmer, Waltham, MA, USA). ABC transporter-related vesicular transport was calculated by subtracting uptake measured in the presence of Mg-AMP from the values measured in the presence of Mg-ATP.
The effects of the test compounds on ABCG2 activity were also measured in a vesicular transport assay by using inverted membrane vesicles prepared from HEK-293 cells expressing high levels of the ABCG2 transporter.
The source holds these as a separate data set.

The target in data set [4] is T3, ABCB1/MDR1/Pgp (Homo sapiens, UniProt P08183). The data set is described as follows: in vitro. Conditions: Estimated Transporter Inhibition IC50, ABCB1 vesicular assay, ATP-dependent NMQ uptake, HEK-293/ABCB1 inverted membrane vesicles, '-' = no inhibition.
T3 sequence (P08183 whole entry): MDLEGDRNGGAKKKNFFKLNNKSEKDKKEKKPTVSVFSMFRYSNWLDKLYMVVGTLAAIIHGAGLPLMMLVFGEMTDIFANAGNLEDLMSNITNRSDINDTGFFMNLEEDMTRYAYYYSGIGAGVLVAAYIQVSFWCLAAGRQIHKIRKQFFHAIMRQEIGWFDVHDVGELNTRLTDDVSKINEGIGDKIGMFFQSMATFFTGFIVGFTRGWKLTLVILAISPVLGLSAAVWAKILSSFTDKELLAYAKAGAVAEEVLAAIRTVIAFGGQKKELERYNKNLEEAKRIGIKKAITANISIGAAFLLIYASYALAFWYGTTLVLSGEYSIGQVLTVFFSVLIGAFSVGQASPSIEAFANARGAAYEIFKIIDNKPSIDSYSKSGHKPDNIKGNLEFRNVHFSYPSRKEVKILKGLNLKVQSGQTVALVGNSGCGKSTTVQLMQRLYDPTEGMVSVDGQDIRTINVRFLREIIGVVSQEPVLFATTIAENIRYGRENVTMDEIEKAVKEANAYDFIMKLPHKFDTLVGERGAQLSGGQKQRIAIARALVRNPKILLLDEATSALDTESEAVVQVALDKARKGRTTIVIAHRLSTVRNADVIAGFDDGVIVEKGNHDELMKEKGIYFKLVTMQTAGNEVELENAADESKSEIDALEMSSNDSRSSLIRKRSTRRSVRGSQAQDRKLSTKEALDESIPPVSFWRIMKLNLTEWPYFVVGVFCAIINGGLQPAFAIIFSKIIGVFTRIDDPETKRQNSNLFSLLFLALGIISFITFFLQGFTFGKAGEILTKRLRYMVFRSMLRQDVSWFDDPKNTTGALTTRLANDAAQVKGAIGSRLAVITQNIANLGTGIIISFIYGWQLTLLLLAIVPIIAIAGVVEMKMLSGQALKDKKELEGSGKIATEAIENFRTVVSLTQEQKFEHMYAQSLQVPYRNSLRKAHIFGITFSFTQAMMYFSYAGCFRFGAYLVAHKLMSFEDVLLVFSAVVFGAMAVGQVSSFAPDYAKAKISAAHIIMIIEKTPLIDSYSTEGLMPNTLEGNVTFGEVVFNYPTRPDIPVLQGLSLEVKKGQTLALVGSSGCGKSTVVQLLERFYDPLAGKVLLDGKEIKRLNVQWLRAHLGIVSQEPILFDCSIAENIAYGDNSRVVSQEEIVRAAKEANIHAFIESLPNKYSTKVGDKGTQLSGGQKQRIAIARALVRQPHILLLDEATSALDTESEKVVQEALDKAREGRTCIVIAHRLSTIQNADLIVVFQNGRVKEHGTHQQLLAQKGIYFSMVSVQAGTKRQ
Data set [5] deals with T3, ABCB1/MDR1/Pgp. As to the kind of experiment: in vitro. Conditions: human. Here is the method:
as §1
(§3) The cells were kept on ice until the flow cytometry measurements. All experiments were performed in triplicate and in at least three biological parallels.
as §2
ABCB1 is a high-affinity active efflux transporter of the viability dye Calcein-AM (CaAM). […] Here, we applied this widely used cellular assay (see https://www.solvobiotech.com/services/categories/dye-efflux-assays) to characterize drug interactions of the applied compounds in intact PLB-985 cells, expressing high levels of the ABCB1 protein.

Data set [6] deals with T1, ABCC1/MRP1. The data set is described as follows: in vitro. Conditions: HL60/ABCC1 cells. Here is the method: as §1, §3, §2
Therefore, we applied this assay to characterize the test drug interactions in intact HL60 cells expressing high levels of the ABCC1 protein.

Data set [7] has as its target T2, ABCG2/BCRP. As to the kind of experiment: ABCG2-ATPase activity in Sf9 membrane vesicles. It counts as biochemical. Also noted: expressed in transfected cells; host or cells: PLB-985. Conditions: Sf9/ABCG2 membranes; ivermectin, ritonavir, lopinavir at low micromolar, remdesivir at higher concentrations.
Procedure: ABC transporter ATPase activity was measured in Sf9 membrane vesicles containing the respective human ABC transporters [46, 47, 48, 49, 50]. For ABCG2/BCRP, the cholesterol level in the vesicles was increased to the level of mammalian cell membranes for full activity [49]. For ABCB1/Pgp 20 μg/150 μL and for ABCG2/BCRP 10 μg/150 μL, vesicles were incubated with 3 mM Mg-ATP for 25 min at 37 °C. The test drugs were dissolved in DMSO and 1 µL was added to the samples. The ABC transporter-related ATPase activity was determined and reference activators (50 µM verapamil for ABCB1 and 5 µM quercetin for ABCG2) served as controls.
Drug-stimulated ATPase activity of the ABCG2 transporter was also measured in the present study.
For the next data set, the target named is T4, OATP1A2 (Homo sapiens, UniProt P46721).
T4 sequence (P46721 1-670): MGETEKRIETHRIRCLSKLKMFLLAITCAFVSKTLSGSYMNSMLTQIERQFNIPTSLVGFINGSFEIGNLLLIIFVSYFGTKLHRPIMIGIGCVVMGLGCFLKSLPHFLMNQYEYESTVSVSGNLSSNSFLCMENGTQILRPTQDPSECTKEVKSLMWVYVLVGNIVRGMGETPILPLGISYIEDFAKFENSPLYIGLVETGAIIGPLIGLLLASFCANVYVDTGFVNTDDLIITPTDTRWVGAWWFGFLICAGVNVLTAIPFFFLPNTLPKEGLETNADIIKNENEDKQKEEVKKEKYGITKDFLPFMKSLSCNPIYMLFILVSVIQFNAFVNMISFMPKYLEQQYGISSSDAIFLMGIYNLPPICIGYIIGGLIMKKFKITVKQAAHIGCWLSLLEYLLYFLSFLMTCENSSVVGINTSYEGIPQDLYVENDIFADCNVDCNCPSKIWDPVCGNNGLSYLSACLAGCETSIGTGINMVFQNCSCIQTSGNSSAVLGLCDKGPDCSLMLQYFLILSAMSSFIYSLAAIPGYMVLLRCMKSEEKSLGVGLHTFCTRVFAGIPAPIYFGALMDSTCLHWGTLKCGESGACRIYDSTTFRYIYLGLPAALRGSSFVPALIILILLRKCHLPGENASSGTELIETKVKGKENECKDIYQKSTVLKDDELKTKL
As to the kind of experiment: cell-based.

Another data set deals with T5, ABCB1/Pgp (Homo sapiens, UniProt P08183).
T5 construct: made in house; host or cells: Sf9 insect cells
T5 sequence (P08183 whole entry): as the sequence (P08183 whole entry) above
As to the kind of experiment: ABCB1-ATPase activity in Sf9 membrane vesicles. It counts as biochemical. Here is the method:
ABC transporter ATPase activity was measured in Sf9 membrane vesicles containing the respective human ABC transporters. For ABCG2/BCRP, the cholesterol level in the vesicles was increased to the level of mammalian cell membranes for full activity. For ABCB1/Pgp 20 μg/150 μL and for ABCG2/BCRP 10 μg/150 μL, vesicles were incubated with 3 mM Mg-ATP for 25 min at 37 °C. The test drugs were dissolved in DMSO and 1 µL was added to the samples. The ABC transporter-related ATPase activity was determined and reference activators (50 µM verapamil for ABCB1 and 5 µM quercetin for ABCG2) served as controls.
Drug-stimulated ATPase activity of the ABCB1 transporter is a well-documented functional assay employed to estimate the substrate or inhibitory features of various drugs. […] In this assay, most transported substrates show a biphasic curve: Low concentrations stimulate, while higher concentrations inhibit, the ATPase activity. In these experiments, we measured the vanadate-sensitive (ABC transporter-related) ABCB1-ATPase activity in membrane vesicles isolated from ABCB1 overexpressing Sf9 cells.

For a further data set, the target named is T6, Q141K-ABCG2 variant (Homo sapiens, UniProt Q9UNQ0, Q141K).
T6 construct: expressed in transfected cells; host or cells: HeLa (Sleeping Beauty transposon system)
T6 sequence (Q9UNQ0 1-655 Q141K): T2 sequence (Q9UNQ0 1-655) with Q141K
The data set is described as follows: Hoechst 33342 dye extrusion in HeLa cells expressing Q141K-ABCG2. Type of data set: cell-based. Conditions: Q141K-ABCG2 variant vs WT.

Data set [8] has as its target T1, ABCC1/MRP1. The data set is described as follows: in vitro.
Another data set concerns the target T7, OATP2B1 (Homo sapiens, UniProt O94956).
T7 sequence (O94956 1-709): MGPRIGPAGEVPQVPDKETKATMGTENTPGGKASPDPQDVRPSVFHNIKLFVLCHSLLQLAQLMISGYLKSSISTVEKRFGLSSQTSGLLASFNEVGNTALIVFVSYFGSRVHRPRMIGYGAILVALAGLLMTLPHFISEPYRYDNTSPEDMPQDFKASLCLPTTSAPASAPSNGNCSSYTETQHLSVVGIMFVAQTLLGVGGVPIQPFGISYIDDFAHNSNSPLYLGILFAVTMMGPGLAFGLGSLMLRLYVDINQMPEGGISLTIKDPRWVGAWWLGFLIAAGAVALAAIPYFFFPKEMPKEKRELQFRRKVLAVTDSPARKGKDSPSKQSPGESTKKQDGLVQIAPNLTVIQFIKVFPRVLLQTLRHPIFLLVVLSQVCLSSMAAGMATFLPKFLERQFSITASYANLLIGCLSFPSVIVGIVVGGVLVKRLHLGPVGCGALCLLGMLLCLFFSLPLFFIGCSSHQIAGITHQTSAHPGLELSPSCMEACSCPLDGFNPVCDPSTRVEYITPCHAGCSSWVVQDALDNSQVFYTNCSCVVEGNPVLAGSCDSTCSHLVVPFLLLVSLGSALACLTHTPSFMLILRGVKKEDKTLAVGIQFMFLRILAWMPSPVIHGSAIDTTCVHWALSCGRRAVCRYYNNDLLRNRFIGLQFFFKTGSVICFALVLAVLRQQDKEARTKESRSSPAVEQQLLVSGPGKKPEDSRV
As to the kind of experiment: cell-based.

For the next data set, the target named is T8, wild-type ABCG2 (Homo sapiens, UniProt Q9UNQ0).
T8 construct: expressed in transfected cells; host or cells: HeLa (Sleeping Beauty transposon system)
T8 sequence (Q9UNQ0 1-655): T2 sequence (Q9UNQ0 1-655)
As to the kind of experiment: Hoechst 33342 dye extrusion in HeLa cells expressing wild-type ABCG2. It counts as cell-based. Conditions: wild-type ABCG2, 0.2 µM Hoechst 33342, full inhibition by 1 µM Ko143.

Residue numbers refer to the chain shown, from its start. Some results are limits rather than exact numbers.

Results on two compounds are retold here after publication PMC7827085 (Pharmaceutics, 2021).

T1 sequence (P33527 whole entry): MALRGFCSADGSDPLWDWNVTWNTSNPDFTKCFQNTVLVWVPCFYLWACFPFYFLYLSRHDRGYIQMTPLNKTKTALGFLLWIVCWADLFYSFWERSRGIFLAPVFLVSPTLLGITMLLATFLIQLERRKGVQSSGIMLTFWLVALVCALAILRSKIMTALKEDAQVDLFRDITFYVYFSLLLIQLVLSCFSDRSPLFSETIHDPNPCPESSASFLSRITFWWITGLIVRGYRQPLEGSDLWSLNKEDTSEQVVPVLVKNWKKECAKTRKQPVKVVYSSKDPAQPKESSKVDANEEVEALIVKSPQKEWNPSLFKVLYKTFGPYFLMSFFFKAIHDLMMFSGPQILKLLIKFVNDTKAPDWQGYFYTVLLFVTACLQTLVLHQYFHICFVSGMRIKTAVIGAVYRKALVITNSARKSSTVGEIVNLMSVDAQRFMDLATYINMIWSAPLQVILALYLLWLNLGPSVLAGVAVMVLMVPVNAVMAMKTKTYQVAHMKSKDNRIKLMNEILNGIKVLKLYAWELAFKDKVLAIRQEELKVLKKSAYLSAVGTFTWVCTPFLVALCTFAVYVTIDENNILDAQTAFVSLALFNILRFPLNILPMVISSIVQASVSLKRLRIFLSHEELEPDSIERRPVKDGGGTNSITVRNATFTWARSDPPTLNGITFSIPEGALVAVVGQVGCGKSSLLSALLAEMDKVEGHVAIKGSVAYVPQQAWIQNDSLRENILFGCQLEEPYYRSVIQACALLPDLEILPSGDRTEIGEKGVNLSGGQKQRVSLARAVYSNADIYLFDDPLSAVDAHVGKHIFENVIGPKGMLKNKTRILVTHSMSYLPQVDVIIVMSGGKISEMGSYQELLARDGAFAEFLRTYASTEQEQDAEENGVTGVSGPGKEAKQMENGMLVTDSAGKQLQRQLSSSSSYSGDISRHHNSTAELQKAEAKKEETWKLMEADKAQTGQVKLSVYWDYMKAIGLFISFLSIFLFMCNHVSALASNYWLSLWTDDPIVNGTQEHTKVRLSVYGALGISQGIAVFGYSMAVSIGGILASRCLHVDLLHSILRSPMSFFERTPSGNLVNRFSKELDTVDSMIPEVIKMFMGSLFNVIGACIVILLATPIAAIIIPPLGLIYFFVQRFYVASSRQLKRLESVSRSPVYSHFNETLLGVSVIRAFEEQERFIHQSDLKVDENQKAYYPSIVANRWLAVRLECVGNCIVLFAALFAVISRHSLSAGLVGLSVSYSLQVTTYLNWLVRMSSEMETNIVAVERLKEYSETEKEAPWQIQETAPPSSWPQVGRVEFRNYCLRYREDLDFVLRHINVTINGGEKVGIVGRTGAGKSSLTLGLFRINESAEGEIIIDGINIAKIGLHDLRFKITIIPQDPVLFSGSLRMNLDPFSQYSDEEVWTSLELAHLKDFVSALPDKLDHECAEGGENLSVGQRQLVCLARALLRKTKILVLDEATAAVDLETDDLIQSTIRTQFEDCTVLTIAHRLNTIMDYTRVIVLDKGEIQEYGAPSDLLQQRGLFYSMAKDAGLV

In general, IC50 refers to the concentration that inhibits the measured activity by half. Turning to `CCN(CC)CCCC(C)Nc1ccnc2cc(Cl)ccc12` (stereo not drawn) [chloroquine], the “Effect on ABCC1 vesicular ETGB transport (in words)” value at ABCC1/MRP1 [1] is on record as “practically no effect”. Besides, the concentration for half-maximal inhibition (IC50) at 40 min against ABCG2/BCRP [2] and at ABCB1/MDR1/Pgp [5] was over 50 µM throughout. The 50% inhibitory concentration (IC50) at 10 min against ABCG2/BCRP [3] was over 50 µM. Moreover, the IC50 on ABCB1/MDR1/Pgp [4] was over 50 µM. Moreover, the “Effect on ABCC1-dependent CaAM extrusion (in words)” value on ABCC1/MRP1 [6] is “practically no effect”.
One may read the inhibition as the percentage by which the read-out fell short of the control. As to `Cc1cccc(C)c1OCC(=O)N[C@@H](Cc1ccccc1)[C@@H](O)C[C@H](Cc1ccccc1)NC(=O)[C@H](C(C)C)N1CCCNC1=O` [lopinavir], the “Effect on baseline ABCG2-ATPase activity (in words)” value on ABCG2/BCRP [7] was “significantly inhibited”. In addition, the half-inhibitory concentration (IC50) on OATP1A2 came out at 1.5 µM; against OATP2B1 it was 1 µM. In addition, the “Concentration of maximal ABCB1-ATPase stimulation” value on ABCB1/Pgp (Sf9/ABCB1 membranes) was “around 0.5 µM”. In addition, the “Effect on ABCB1-ATPase activity (in words)” value on ABCB1/Pgp (Sf9/ABCB1 membranes, 50 µM verapamil as reference activator) is recorded as “significant ABCB1-ATPase stimulation”. Moreover, the “Effect on ABCB1-ATPase activity at higher concentrations (in words)” value at ABCB1/Pgp (at higher concentrations) is “inhibitory effects”. Moreover, the “Inhibition of Hst dye extrusion in Q141K-ABCG2 HeLa cells compared with wild type (in words)” value at Q141K-ABCG2 variant was “significantly stronger inhibition”. This compound had an inhibition at 3 min at ABCC1/MRP1 [8] of 60%. In addition, the “Effect on Hst dye extrusion by ABCG2 in HeLa cells (in words)” value on wild-type ABCG2 is reported as “inhibited”.
